Measurements taken from patent publication US11376324B2, “Sting activating nanovaccine for immunotherapy” (The Board of Regents of the University of Texas System, priority 2016, dated 2022).

Experiments:
[1] = Histology of major organs (H&E); format: in vivo, C57BL/6 mice; details: repeated injections, 10 μg OVA plus 150 μg
Procedure: FIG. 14. Histology analyses of major organs for safety assessment of PC7A nanovaccine. Representative H&E sections of the main organs from C57BL/6 mice after repeated injections of 10 μg OVA plus 150 μg PC7A NP or the same dose of Poly(I:C). Mice were sacrificed 24 h after the second injection (n=5 for each group).

IRF7 and CXCL10 = experiment: q-RT-PCR of interferon-stimulated genes at injection site; format: in vivo, mice; details: local tissue after s.c. injection
Source text: Samples were run in triplicate.

B16-OVA tumor = experiment: B16-OVA melanoma tumor therapy; format: in vivo, C57BL/6 mice; details: peptide 0.5 μg, s.c. day 5 and booster 5 days later
Procedure: Six to eight week old mice (n=10 for each group) were injected subcutaneously with B16-OVA or B16F10 melanoma cells (1.5×10^5), or TC-1 cells (1.5×10^5), MC38 cells (5×10^5) into the right flank of mice. […] Or at day 3, 6, 9 and 12, some groups were i.p. injected with 200 μg checkpoint inhibitors (anti-mPD-1, BioXcell, BE0146) for comparison or synergy evaluation. The tumor growth was subsequently measured twice a week using a digital caliper and calculated as 0.5×length×width^2 by blinded investigators. Mice were killed when tumor […] reached 1500 mm^3, the end point of tumor detection is 2-fold of the longest survival time (LST) of control group, so around 40 days for melanoma tumor model, and around 60 days for TC-1 and MC38 tumor models.

| Substance | histology of major organs (liver, spleen, kidney, heart) [1] | IRF7 and CXCL10 expression, 2 to 8 h (IRF7 and CXCL10) | tumor growth inhibition / survival benefit (in words) (B16-OVA tumor) |
| --- | --- | --- | --- |
| Poly(I:C) | ballooned hepatocytes indicative of steatohepatitis | higher response in IRF7 and CXCL10 expressions in the early time points from 2 to 8 h than PC7A NP | – |
| SIINFEKLTEWTSSNVMEERKIKV [OVA257-280] | – | – | did not offer any significant tumor growth inhibition or survival benefit over the PBS control |
